Where two headings read alike, the source gives them in different places.
Key:
MV-4-11 = assay: CCK-8 tumor cell proliferation, MV-4-11; assay type: cell-based, Human; settings: Table 7, designed based on BTK inhibitors; 72 h
Summary of the method: (§1)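 Proliferation was measured by CCK-8. Plated cells received compound 24 h later at ten 5-fold dilutions beginning at 10 μM.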

MDA-MB-231 = assay: CCK-8 tumor cell proliferation, MDA-MB-231; assay type: cell-based, Human; set-up: IC50 for inhibiting the proliferation of tumor cells, MDA-MB-231: scale not given here; settings: Table 7, designed based on BTK inhibitors, 96 h
Summary of the method: as §1

22RV1 = assay: CCK-8 tumor cell proliferation, 22RV1; set-up: species or system Human; settings: Table 7, designed based on BTK inhibitors, 96 h
Procedure: (§2) The tumor cells used herein were cultured in a cell culture medium listed in table 4 at 37° C. in an incubator with 5% CO2. Prior to experimentation, all cells used were correctly identified by STR profiling, and tested negative for mycoplasma through routine screenings.
(§3) IC50 values of the compounds of the present disclosure (including the compounds in Tables 1 and 3, and compounds of examples) were measured using the Meilun Cell Counting Kit-8 kit from Dalian Meilun Biotech Co., Ltd. Assay details are as follows: tumor cells were seeded in a 96-well plate at a density listed in Table 5. After 24 h, 100 μL of the inoculated cells were treated with 0.5 μL of the compounds of the present disclosure (including the compounds in Tables 1 and 3, and compounds of examples) at 10 different successively decreasing concentrations (starting at the highest concentration of 10 μM; 5-fold serial dilutions). After the cells were treated with the compounds of the present disclosure for a period of time, the cell viability detection reagent was added to the culture medium for cell viability assessment according to the instructions provided with the CCK-8 kit. […] The growth inhibition of the compounds of the present disclosure on cells was plotted by Prism Graphpad software, and the IC50 values of the compounds of the present disclosure were calculated therefrom.

Mino = assay: CCK-8 tumor cell proliferation, Mino; assay type: cell-based, Human; settings: Table 7, designed based on BTK inhibitors; 72 h
Summary of the method: as §1

MM.1S = assay: CCK-8 tumor cell proliferation, MM.1S; assay type: cell-based; settings: for IC50: Homo sapiens, MM1.S
Summary of the method: as §1

JEKO-1 = assay: CCK-8 tumor cell proliferation, JEKO-1; set-up: species or system Human; settings: Table 7, designed based on BTK inhibitors; 96 h
Procedure: as §2, §3

CCRF-CEM = assay: CCK-8 tumor cell proliferation, CCRF-CEM; assay type: cell-based, Human; set-up: IC50 for inhibiting the proliferation of tumor cells, CCRF-CEM: scale not given here; settings: for IC50: Homo sapiens, CCRF-CEM
Summary of the method: as §1

Kasumi-1 = assay: CCK-8 tumor cell proliferation, Kasumi-1; assay type: cell-based, Human; settings: Table 7, designed based on BTK inhibitors; 72 h
Summary of the method: as §1

NCI-H1975 = assay: CCK-8 tumor cell proliferation, NCI-H1975; assay type: cell-based, Human; settings: Table 7, designed based on BTK inhibitors; 96 h
Summary of the method: as §1

Vcap = assay: CCK-8 tumor cell proliferation, Vcap; assay type: cell-based, Human; settings: for IC50: Homo sapiens, VCaP
Summary of the method: as §1

THP-1 = assay: CCK-8 tumor cell proliferation, THP-1; assay type: cell-based, Human; settings: Table 7, designed based on BTK inhibitors, 72 h
Procedure: as §2, §3

CAL-62 = assay: CCK-8 tumor cell proliferation, CAL-62; assay type: cell-based, Human; settings: Homo sapiens; Table 18, FAK inhibitor based; CAL-62; read-out: IC50 inhibiting proliferation of tumor cells, CAL-62
Summary of the method: as §1

MGC-803 = assay: CCK-8 tumor cell proliferation, MGC-803; settings: Homo sapiens, Table 18, FAK inhibitor based, MGC803, read-out: IC50 inhibiting proliferation of tumor cells, MGC803
Procedure: as §2, §3

SW620 = assay: CCK-8 tumor cell proliferation, SW620; assay type: cell-based, Human; settings: Homo sapiens, SW-620; Table 18, FAK inhibitor based; SW620; read-out: IC50 inhibiting proliferation of tumor cells, SW620
Summary of the method: as §1

Hep3B2.7-1 = assay: CCK-8 tumor cell proliferation, Hep3B2.7-1; assay type: cell-based, Human; settings: Homo sapiens; Table 18, FAK inhibitor based; HEP3B2.7-1; read-out: IC50 inhibiting proliferation of tumor cells, HEP3B2.7-1
Summary of the method: as §1

[1] = Table 7, designed based on BTK inhibitors, 72 h
[2] = Table 7, designed based on BTK inhibitors, 96 h
[3] = Table 18, FAK inhibitor based, Vcap, read-out: IC50 inhibiting proliferation of tumor cells, Vcap
[4] = Table 18, FAK inhibitor based, read-out: IC50 inhibiting proliferation of tumor cells, CCRF-CEM
[5] = Table 18, FAK inhibitor based, MM.1S, read-out: IC50 inhibiting proliferation of tumor cells, MM.1S

Nc1ncnc2c1c(-c1ccc(Oc3ccccc3)cc1)nn2C1CCN(Cc2ccc3c(c2)CN(C2CCC(=O)NC2=O)C3=O)CC1F (stereo not shown) [GT-02652, 3-(5-((4-(4-amino-3-(4-phenoxyphenyl)-1H-pyrazolo[3,4-d]pyrimidin-1-yl)-3-fluoropiperidin-1-yl)methyl)-1-oxoisoindolin-2-yl)piperidine-2,6-dione]
IC50 for inhibiting the proliferation of tumor cells, MV-4-11 (MV-4-11): A+ | IC50 for inhibiting the proliferation of tumor cells, MDA-MB-231 (MDA-MB-231): A+ | IC50 for inhibiting the proliferation of tumor cells, 22RV1 (22RV1): A+ | IC50 for inhibiting the proliferation of tumor cells, Mino (Mino): A+ | IC50 for inhibiting the proliferation of tumor cells, MM.1S (MM.1S; [1]): A+

Nc1ncnc2c1c(-c1ccc(Oc3ccccc3)cc1)nn2[C@@H]1CCN(Cc2ccc3c(c2)CN(C2CCC(=O)NC2=O)C3=O)C[C@H]1F (stereo partly drawn) [GT-03287, 3-(5-(((3R,4R)-4-(4-amino-3-(4-phenoxyphenyl)-1H-pyrazolo[3,4-d]pyrimidin-1-yl)-3-fluoropiperidin-1-yl)methyl)-1-oxoisoindolin-2-yl)piperidine-2,6-dione]
IC50 for inhibiting the proliferation of tumor cells, MDA-MB-231 (MDA-MB-231): A+ | IC50 for inhibiting the proliferation of tumor cells, JEKO-1 (JEKO-1): A+ | IC50 for inhibiting the proliferation of tumor cells, 22RV1 (22RV1): A+ | IC50 for inhibiting the proliferation of tumor cells, Mino (Mino): A+ | IC50 for inhibiting the proliferation of tumor cells, MM.1S (MM.1S; [1]): A+

Nc1ncnc2c1c(-c1ccc(Oc3ccccc3)cc1)nn2C1CCN(Cc2ccc3c(c2F)CN(C2CCC(=O)NC2=O)C3=O)CC1 (stereo not shown) [GT-03472, 3-(5-((4-(4-amino-3-(4-phenoxyphenyl)-1H-pyrazolo[3,4-d]pyrimidin-1-yl)piperidin-1-yl)methyl)-4-fluoro-1-oxoisoindolin-2-yl)piperidine-2,6-dione]
IC50 for inhibiting the proliferation of tumor cells, MDA-MB-231 (MDA-MB-231): A+ | IC50 for inhibiting the proliferation of tumor cells, CCRF-CEM (CCRF-CEM; [2]): A+ | IC50 for inhibiting the proliferation of tumor cells, Kasumi-1 (Kasumi-1): A+ | IC50 for inhibiting the proliferation of tumor cells, NCI-H1975 (NCI-H1975): A+ | IC50 for inhibiting the proliferation of tumor cells, Vcap (Vcap; [2]): A+ | IC50 for inhibiting the proliferation of tumor cells, MM.1S (MM.1S; [1]): A+ | IC50 for inhibiting the proliferation of tumor cells, THP-1 (THP-1): A+

CNC(=O)c1ccccc1Nc1cc(Nc2cc(C)c(N3CCN(Cc4cc5c(cc4F)C(=O)N(C4CCC(=O)NC4=O)C5)CC3)cc2OC(C)C)ncc1C(F)(F)F (stereo not shown) [GT-03942, 2-((2-((4-(4-((2-(2,6-dioxopiperidin-3-yl)-6-fluoro-1-oxoisoindolin-5-yl)methyl)piperazin-1-yl)-2-isopropoxy-5-methylphenyl)amino)-5-(trifluoromethyl)pyridin-4-yl)amino)-N-methylbenzamide]
IC50 (CAL-62): < 50 nM | IC50 (Vcap; [3]): < 50 nM | IC50 (MGC-803): < 50 nM | IC50 (SW620): < 50 nM

CNC(=O)c1ccccc1Nc1cc(Nc2cc(C)c(C3CCN(Cc4ccc5c(c4F)CN(C4CCC(=O)NC4=O)C5=O)CC3)cc2OC(C)C)ncc1C(F)(F)F (stereo not shown) [GT-04079, 2-((2-((4-(1-((2-(2,6-dioxopiperidin-3-yl)-4-fluoro-1-oxoisoindolin-5-yl)methyl)piperidin-4-yl)-2-isopropoxy-5-methylphenyl)amino)-5-(trifluoromethyl)pyridin-4-yl)amino)-N-methylbenzamide]
IC50 (CCRF-CEM; [4]): < 50 nM | IC50 (CAL-62): < 50 nM | IC50 (Vcap; [3]): < 50 nM | IC50 (MGC-803): 100 to 500 nM | IC50 (MM.1S; [5]): < 50 nM | IC50 (SW620): < 50 nM | IC50 (Hep3B2.7-1): < 50 nM

CNC(=O)c1ccccc1Nc1cc(Nc2cc(C)c(C3CCN(Cc4cc5c(cc4F)C(=O)N(C4CCC(=O)NC4=O)C5)CC3)cc2OC(C)C)ncc1C(F)(F)F (stereo not shown) [GT-04080, 2-((2-((4-(1-((2-(2,6-dioxopiperidin-3-yl)-6-fluoro-1-oxoisoindolin-5-yl)methyl)piperidin-4-yl)-2-isopropoxy-5-methylphenyl)amino)-5-(trifluoromethyl)pyridin-4-yl)amino)-N-methylbenzamide]
IC50 (CCRF-CEM; [4]): < 50 nM | IC50 (CAL-62): < 50 nM | IC50 (Vcap; [3]): < 50 nM | IC50 (MGC-803): 50 to 100 nM | IC50 (MM.1S; [5]): < 50 nM | IC50 (SW620): < 50 nM | IC50 (Hep3B2.7-1): < 50 nM

CNC(=O)c1ccccc1Nc1cc(Nc2cc(C)c(N3CCC(N(C)Cc4ccc5c(c4)CN(C4CCC(=O)NC4=O)C5=O)CC3)cc2OC(C)C)ncc1C(F)(F)F (stereo not shown) [GT-04090, 2-((2-((4-(4-(((2-(2,6-dioxopiperidin-3-yl)-1-oxoisoindolin-5-yl)methyl)(methyl)amino)piperidin-1-yl)-2-isopropoxy-5-methylphenyl)amino)-5-(trifluoromethyl)pyridin-4-yl)amino)-N-methylbenzamide]
IC50 (CAL-62): 50 to 100 nM | IC50 (MGC-803): < 50 nM

CNC(=O)c1ccccc1Nc1cc(Nc2cc(C)c(N3CCC(N(C)Cc4ccc5c(c4F)CN(C4CCC(=O)NC4=O)C5=O)CC3)cc2OC(C)C)ncc1C(F)(F)F (stereo not shown) [GT-04091, 2-((2-((4-(4-(((2-(2,6-dioxopiperidin-3-yl)-4-fluoro-1-oxoisoindolin-5-yl)methyl)(methyl)amino)piperidin-1-yl)-2-isopropoxy-5-methylphenyl)amino)-5-(trifluoromethyl)pyridin-4-yl)amino)-N-methylbenzamide]
IC50 (CAL-62): < 50 nM | IC50 (MGC-803): 50 to 100 nM

CNC(=O)c1ccccc1Nc1cc(Nc2cc(C)c(N3CCC(N(C)Cc4cc5c(cc4F)C(=O)N(C4CCC(=O)NC4=O)C5)CC3)cc2OC(C)C)ncc1C(F)(F)F (stereo not shown) [GT-04092, 2-((2-((4-(4-(((2-(2,6-dioxopiperidin-3-yl)-6-fluoro-1-oxoisoindolin-5-yl)methyl)(methyl)amino)piperidin-1-yl)-2-isopropoxy-5-methylphenyl)amino)-5-(trifluoromethyl)pyridin-4-yl)amino)-N-methylbenzamide]
IC50 (CAL-62): 100 to 500 nM | IC50 (MGC-803): < 50 nM

CNC(=O)c1ccccc1Nc1cc(Nc2cc(C)c(N3CCC(N(C)Cc4cc(F)c5c(c4)CN(C4CCC(=O)NC4=O)C5=O)CC3)cc2OC(C)C)ncc1C(F)(F)F (stereo not shown) [GT-04093, 2-((2-((4-(4-(((2-(2,6-dioxopiperidin-3-yl)-7-fluoro-1-oxoisoindolin-5-yl)methyl)(methyl)amino)piperidin-1-yl)-2-isopropoxy-5-methylphenyl)amino)-5-(trifluoromethyl)pyridin-4-yl)amino)-N-methylbenzamide]
IC50 (CAL-62): 50 to 100 nM | IC50 (MGC-803): < 50 nM

C=CC(=O)N1CCC[C@@H](n2nc(-c3ccc(Oc4ccccc4)cc3)c3c(N)ncnc32)C1 [ibrutinib, Ibrutinib, reference compound]
IC50 (MDA-MB-231; Homo sapiens, MDA-MB-231, read-out: IC50 for inhibiting the proliferation of tumor cells, MDA-MB-231): > 10000 nM | IC50 (CCRF-CEM; Table 7, designed based on BTK inhibitors, 96 h, read-out: IC50 for inhibiting the proliferation of tumor cells, CCRF-CEM): > 10000 nM | IC50 (Vcap; 96 h, Table 7, designed based on BTK inhibitors, 96 h, read-out: IC50 for inhibiting the proliferation of tumor cells, Vcap): > 10000 nM | IC50 (22RV1; Homo sapiens, 22Rv1, read-out: IC50 for inhibiting the proliferation of tumor cells, 22RV1): > 10000 nM | IC50 (MM.1S; Table 7, designed based on BTK inhibitors, 72 h, read-out: IC50 for inhibiting the proliferation of tumor cells, MM.1S): > 10000 nM | IC50 (THP-1; Homo sapiens, THP-1, read-out: IC50 for inhibiting the proliferation of tumor cells, THP-1): > 10000 nM

From patent US20260199323A1, “LIGAND COMPOUNDS FOR E3 UBIQUITIN LIGASE, PROTEIN DEGRADERS DEVELOPED ON BASIS OF LIGAND COMPOUNDS, AND USES THEREOF” (GLUETACS THERAPEUTICS (SHANGHAI) CO., LTD., priority 2021, published 2026)
